Assay results reported in ChEMBL document CHEMBL1201862, “PubChem BioAssay data set” (2004).
Counter-ions that a name gives are not always drawn. Calls of active or inactive are those of the source.

How the values were obtained:
[1] = biological target: T1, Bcl-2-like protein 10 (Homo sapiens, UniProt Q9HD36); assay: displacers of TR3 peptide from Bcl-B, primary screen, selectivity assay for Bfl-1 inhibitor project, biochemical, fluorescence polarization, FITC-TR3 peptide (AID 748);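 also: fluorescence polarization from a fluorescein-labelled TR3 peptide binding purified Bcl-B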
T1 sequence (Q9HD36 whole entry): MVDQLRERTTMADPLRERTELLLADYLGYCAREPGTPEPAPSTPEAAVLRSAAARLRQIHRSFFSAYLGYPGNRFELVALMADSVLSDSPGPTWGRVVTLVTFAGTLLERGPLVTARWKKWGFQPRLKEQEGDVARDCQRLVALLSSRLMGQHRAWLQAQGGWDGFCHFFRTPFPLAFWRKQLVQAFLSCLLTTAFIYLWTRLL

[2] = Luminescence Cell-Based Dose Response HTS to Identify Activators of Luciferase Translation or Activity in H4 […] Cells. [Related pubchem assays: 1829 (Project Summary), 1814 (Primary HTS)]; assay type: functional
[3] = Luminescence Cell-Based Dose Confirmation HTS to Identify Activators of 5'UTR Stem-Loop Driven Alpha-Synuclein mRNA Translation in H4 Neuroglioblastoma Cells. [Related pubchem assays: 1829 (Project Summary), 1814 (Primary HTS)]; assay type: functional
[4] = Luminescence Cell-Based Dose Response to Identify Activators of 5'UTR Stem-Loop Driven Prion Protein mRNA Translation in H4-C Neuroglioblastoma Cells. [Related pubchem assays: 1829 (Project Summary), 1814 (Primary HTS)]; assay type: functional
[5] = tested on: H4; assay: Luminescence Cell-Based Dose Response HTS to Identify Activators of 5'UTR Stem-Loop Driven Prion Protein mRNA Translation in H4 Neuroglioblastoma Cells. [Related pubchem assays: 1829 (Project Summary), 1814 (Primary HTS)]; assay type: functional; details: Homo sapiens
[6] = Luminescence Cell-Based Dose Confirmation to Identify Activators of 5'UTR Stem-Loop Driven Alpha-Synuclein mRNA Translation in H4 Neuroglioblastoma Cells. [Related pubchem assays: 1829 (Project Summary), 1814 (Primary HTS)]; assay type: functional
[7] = Luminescence Cell-Based Dose Response to Identify Activators of Luciferase Translation or Activity in H4-C Neuroglioblastoma Cells. [Related pubchem assays: 1829 (Project Summary), 1814 (Primary HTS)]; assay type: functional
[8] = biological target: T2, Oxysterols receptor LXR-beta (Homo sapiens, UniProt P55055); assay: LXR agonists, Gal4 luciferase reporter, dose response, counter-screen for ssDAF-12 agonist project, cell-based, luminescence, HEK293, S. stercoralis campaign (AID 720737); assay type: functional; details: read-out: IC50 (the source's name)
T2 sequence (P55055 whole entry): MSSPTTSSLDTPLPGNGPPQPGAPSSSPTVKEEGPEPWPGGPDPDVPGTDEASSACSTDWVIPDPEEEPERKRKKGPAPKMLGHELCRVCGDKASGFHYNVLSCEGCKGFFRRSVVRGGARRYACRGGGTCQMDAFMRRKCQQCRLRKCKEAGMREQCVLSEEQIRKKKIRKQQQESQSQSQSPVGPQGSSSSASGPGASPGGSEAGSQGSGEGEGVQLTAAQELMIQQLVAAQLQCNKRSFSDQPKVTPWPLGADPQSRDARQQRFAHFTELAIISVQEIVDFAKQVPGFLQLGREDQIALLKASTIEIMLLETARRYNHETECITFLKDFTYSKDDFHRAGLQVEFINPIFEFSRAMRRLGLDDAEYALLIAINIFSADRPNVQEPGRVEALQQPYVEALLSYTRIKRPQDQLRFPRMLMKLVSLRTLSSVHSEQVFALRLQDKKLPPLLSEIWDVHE

[9] = Luminescence-based cell-based high throughput dose response assay to identify activators of the DAF-12 from the parasite S. stercoralis (ssDAF-12).; assay type: functional
[10] = biological target: T3, Heat shock factor protein 1 (Mus musculus, UniProt P38532); assay: HSF1 potentiators in luciferase reporter cells, confirmation, cell-based, NIH3T3, luminescence, dose retest (AID 435004); assay type: functional;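 also: stress induced by proteasome inhibitor MG132 added 30 min after compound; luciferase reporter driven by HSF1 response element in NIH3T3 cells; actives raise luminescence as potentiators of the MG132 stress response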
T3 sequence (P38532 whole entry): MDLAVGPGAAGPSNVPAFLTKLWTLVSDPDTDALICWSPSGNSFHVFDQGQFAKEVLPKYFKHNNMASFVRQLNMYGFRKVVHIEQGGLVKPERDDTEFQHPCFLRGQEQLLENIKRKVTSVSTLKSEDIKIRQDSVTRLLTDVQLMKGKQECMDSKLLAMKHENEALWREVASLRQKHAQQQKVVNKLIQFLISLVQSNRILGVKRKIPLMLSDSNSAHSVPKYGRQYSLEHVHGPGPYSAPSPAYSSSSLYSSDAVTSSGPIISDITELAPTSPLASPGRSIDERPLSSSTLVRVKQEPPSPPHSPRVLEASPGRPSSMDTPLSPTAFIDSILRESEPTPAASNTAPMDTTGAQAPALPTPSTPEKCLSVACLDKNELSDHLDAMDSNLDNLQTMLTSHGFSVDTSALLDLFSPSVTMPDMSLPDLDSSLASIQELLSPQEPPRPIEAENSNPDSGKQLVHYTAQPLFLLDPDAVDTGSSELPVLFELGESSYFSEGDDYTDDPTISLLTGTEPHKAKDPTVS

[11] = biological target: T4, Fatty acid synthase (Homo sapiens, UniProt P49327); assay: FAS thioesterase domain inhibitors, dose response, biochemical, kinetic fluorescence intensity (AID 624326); assay type: functional;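 also: rate of fluorescence rise from hydrolysis of a fluorogenic O-methyl fluorescein ester substrate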
T4 sequence (P49327 whole entry, the tested form may be a part): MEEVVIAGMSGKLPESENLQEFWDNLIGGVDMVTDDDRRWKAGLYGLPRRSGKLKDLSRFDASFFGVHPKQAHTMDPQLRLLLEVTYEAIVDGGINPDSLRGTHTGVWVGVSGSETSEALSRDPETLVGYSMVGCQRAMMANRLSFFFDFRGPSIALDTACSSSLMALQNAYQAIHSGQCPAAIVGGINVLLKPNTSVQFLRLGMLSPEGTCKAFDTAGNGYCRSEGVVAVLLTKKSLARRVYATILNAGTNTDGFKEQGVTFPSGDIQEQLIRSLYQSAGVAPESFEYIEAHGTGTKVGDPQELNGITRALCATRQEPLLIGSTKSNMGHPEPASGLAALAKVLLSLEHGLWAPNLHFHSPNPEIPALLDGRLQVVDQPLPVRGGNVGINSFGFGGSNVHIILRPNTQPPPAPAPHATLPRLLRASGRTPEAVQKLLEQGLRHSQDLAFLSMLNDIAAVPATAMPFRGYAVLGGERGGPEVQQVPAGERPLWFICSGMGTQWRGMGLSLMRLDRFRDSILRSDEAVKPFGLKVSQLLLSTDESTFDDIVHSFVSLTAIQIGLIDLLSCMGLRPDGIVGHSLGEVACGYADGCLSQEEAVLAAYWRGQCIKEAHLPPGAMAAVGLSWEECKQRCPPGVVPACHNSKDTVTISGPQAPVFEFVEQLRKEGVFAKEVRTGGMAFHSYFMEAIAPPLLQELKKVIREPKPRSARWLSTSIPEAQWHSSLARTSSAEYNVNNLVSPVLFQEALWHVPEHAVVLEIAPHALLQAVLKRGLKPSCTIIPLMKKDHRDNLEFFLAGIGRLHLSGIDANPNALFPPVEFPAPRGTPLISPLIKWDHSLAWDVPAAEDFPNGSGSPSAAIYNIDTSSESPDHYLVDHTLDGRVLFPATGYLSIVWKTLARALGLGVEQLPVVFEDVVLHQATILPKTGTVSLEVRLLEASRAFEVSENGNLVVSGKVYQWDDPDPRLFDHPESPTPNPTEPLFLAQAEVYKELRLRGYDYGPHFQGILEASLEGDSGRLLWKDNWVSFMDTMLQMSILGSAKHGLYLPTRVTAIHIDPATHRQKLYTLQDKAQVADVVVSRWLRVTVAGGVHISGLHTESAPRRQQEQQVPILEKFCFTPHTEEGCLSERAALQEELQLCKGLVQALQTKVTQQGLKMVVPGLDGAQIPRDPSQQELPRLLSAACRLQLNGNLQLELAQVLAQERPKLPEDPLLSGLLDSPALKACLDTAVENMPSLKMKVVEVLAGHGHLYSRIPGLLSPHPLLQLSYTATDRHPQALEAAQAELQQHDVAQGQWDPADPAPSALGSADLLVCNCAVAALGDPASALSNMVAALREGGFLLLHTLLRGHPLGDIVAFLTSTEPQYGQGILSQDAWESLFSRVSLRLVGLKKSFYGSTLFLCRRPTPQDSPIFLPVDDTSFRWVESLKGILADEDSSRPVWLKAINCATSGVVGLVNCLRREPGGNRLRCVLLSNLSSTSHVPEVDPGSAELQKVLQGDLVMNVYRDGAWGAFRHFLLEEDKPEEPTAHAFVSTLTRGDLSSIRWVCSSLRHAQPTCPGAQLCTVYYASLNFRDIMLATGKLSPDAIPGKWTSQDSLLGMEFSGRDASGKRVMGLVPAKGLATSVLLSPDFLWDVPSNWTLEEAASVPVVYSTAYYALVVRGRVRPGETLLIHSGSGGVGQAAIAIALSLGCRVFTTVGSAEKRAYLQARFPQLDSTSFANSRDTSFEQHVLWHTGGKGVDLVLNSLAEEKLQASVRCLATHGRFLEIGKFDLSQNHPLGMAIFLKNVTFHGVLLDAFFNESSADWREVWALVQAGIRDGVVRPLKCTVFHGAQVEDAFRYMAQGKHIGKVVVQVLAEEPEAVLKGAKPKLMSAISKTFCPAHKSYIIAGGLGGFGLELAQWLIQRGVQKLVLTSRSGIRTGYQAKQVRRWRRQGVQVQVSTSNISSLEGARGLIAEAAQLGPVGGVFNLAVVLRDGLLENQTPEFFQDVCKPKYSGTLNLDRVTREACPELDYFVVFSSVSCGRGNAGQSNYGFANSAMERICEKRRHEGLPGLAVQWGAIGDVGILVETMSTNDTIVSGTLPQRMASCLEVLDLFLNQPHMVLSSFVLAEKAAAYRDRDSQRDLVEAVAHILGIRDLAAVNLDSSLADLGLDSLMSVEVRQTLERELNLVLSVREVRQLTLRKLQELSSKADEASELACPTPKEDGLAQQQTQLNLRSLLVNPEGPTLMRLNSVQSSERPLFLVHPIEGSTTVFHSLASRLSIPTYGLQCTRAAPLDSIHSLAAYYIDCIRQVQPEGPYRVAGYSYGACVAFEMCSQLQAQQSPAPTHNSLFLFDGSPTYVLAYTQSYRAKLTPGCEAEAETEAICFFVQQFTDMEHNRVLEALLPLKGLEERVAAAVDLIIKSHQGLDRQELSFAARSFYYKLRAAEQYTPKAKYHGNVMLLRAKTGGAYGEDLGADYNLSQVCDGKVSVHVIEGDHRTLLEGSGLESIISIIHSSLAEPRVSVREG

[12] = tested on: INS1; assay: beta cell apoptosis inhibitors, cytokine rescue, dose response, luminescence, retest (AID 449756); assay type: functional, cell-based; details: Rattus norvegicus;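 also: cell death triggered by IL-1 beta plus TNF-alpha plus IFN-gamma mixture; protective hits raise ATP signal compared with cytokine alone wells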
[13] = biological target: T4, Fatty acid synthase; assay: FAS thioesterase domain inhibitors, dose response, biochemical, endpoint fluorescence intensity, uHTS hits (AID 624327); assay type: functional;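 also: fluorescence from hydrolysis of an O-methyl fluorescein acyl ester substrate by the enzyme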
[14] = biological target: T5, Aminopeptidase N (Plasmodium falciparum FcB1/Columbia, UniProt O96935); assay: P. falciparum M1AAP inhibitors, biochemical, fluorogenic H-Leu-NHMec substrate, 1536-well (AID 1445); parameters: species or system Plasmodium falciparum 3D7, 3D7
T5 sequence (O96935 whole entry): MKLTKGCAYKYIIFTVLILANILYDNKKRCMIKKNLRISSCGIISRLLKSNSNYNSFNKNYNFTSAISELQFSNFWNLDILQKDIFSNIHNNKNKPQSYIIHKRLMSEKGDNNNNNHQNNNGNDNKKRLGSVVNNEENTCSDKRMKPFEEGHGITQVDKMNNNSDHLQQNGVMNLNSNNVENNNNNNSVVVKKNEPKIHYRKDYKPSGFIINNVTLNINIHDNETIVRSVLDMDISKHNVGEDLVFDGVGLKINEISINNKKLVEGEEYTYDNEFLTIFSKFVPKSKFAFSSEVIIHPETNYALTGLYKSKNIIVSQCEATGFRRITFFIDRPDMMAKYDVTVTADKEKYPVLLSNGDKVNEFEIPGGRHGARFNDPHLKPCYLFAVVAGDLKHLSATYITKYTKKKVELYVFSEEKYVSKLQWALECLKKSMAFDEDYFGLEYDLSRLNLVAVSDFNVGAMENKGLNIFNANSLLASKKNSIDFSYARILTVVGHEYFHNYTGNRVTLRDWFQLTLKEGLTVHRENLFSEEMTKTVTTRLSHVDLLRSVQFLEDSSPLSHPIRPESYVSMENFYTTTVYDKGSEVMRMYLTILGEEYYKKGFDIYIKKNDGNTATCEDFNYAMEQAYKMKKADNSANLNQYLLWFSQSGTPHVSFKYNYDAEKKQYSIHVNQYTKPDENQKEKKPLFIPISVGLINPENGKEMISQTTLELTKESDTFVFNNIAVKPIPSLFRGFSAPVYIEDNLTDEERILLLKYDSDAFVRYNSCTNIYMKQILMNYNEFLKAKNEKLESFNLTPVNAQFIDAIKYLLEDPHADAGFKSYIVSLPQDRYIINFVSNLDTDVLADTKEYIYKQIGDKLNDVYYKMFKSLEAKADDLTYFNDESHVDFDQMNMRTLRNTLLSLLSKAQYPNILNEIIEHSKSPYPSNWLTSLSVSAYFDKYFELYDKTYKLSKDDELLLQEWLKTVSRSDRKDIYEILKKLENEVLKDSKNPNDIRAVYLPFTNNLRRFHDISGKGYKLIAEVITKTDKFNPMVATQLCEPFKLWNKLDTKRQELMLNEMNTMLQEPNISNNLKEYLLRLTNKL

[15] = biological target: T6, Sentrin-specific protease 8 (Homo sapiens, UniProt Q96LD8); assay type: functional
T6 sequence (Q96LD8 whole entry): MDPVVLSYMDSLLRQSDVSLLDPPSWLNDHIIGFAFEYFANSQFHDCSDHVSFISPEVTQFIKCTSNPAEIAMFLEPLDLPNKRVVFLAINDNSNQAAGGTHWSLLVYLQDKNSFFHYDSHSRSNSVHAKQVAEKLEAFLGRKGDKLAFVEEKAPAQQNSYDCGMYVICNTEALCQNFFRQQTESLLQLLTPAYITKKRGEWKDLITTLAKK

[16] = biological target: T6, Sentrin-specific protease 8; assay type: functional; remark: listed apart in the source
[17] = biological target: T7, Caspase-6 (Homo sapiens, UniProt P55212); assay: human caspase-6 inhibitors, dose response, biochemical, VEID-R110 fluorescence, cherry-pick (AID 720632)
T7 sequence (P55212 whole entry): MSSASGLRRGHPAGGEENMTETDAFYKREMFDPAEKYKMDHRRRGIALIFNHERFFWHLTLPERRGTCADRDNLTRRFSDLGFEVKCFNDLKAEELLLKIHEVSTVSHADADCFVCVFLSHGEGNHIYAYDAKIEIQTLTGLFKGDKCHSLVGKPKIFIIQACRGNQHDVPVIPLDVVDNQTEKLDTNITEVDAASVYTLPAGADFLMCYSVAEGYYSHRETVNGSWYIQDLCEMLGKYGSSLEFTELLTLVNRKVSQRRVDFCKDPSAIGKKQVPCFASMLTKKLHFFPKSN

[18] = biological target: FAD-linked sulfhydryl oxidase ALR (Homo sapiens, UniProt P55789); assay: inhibitors of human ALR sulfhydryl oxidase, dose response, biochemical, H2O2 detection, luminescence, cherry-pick (AID 493248)
FAD-linked sulfhydryl oxidase ALR, sequence (P55789 whole entry): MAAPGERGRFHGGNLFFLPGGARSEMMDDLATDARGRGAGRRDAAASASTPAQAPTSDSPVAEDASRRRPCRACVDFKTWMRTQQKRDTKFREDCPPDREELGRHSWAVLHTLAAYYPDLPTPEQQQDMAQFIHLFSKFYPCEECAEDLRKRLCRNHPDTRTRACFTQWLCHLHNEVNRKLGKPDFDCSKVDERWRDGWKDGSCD

[19] = microbe, parasite or virus in culture; assay type: functional; details: Mycobacterium tuberculosis
[20] = cytotoxicity in HPDE-C7 cells, cell-based, fluorescence, HTS (AID 430); assay type: functional; details: Homo sapiens
[21] = biological target: T8, DNA repair protein RAD52 homolog (Homo sapiens, UniProt P43351); assay type: functional, biochemical
T8 sequence (P43351 whole entry): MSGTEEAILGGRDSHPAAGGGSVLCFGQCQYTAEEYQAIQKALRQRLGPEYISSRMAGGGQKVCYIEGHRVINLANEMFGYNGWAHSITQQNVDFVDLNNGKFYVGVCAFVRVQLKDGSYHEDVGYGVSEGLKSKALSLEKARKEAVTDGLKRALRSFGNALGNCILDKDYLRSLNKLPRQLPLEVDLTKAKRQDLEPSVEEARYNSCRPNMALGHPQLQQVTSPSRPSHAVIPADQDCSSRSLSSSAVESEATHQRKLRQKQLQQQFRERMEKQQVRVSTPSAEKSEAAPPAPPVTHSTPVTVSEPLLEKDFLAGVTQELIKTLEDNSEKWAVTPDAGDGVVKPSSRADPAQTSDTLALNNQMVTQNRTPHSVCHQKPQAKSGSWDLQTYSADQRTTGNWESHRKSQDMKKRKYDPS

[22] = cytotoxicity in KRAS-transformed pancreatic duct cells, primary screen, cell-based, fluorescence, HTS (AID 431); assay type: functional; details: Homo sapiens;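 also: cell line used: HPDE-C7K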

Clc1ccc2nc(CN3CCCc4ccccc43)cn2c1
IC50 [1]: 72.5 µM (inactive)

O=C(C[n+]1cc(-c2ccc(F)cc2)n2c1CCC2)c1cccs1
EC50 [2]: 0.136 µM (inconclusive) | EC50 [3]: < 0.1 µM (active) | EC50 [4]: 1.06 µM (active) | EC50 [5]: 29.9 µM (inconclusive) | EC50 [6]: 3.26 µM (active) | EC50 [7]: > 12 µM (not active)

CCC(C)Sc1nc2c3ccccc3nc-2c(O)n1C (centres undefined)
EC50 [8]: > 67.5 µM (inactive) | IC50 [9]: > 67.5 µM (inactive) | EC50 [10]: > 260 µM (inactive)

O=C(c1ccc([N+](=O)[O-])cc1)N1CCOCC1
EC50 [8]: > 67.4 µM (inactive) | IC50 [9]: > 67.4 µM (inactive)

O=C(CNC(=O)c1ccccc1)N/N=C/c1cc(Br)ccc1O
IC50 [11]: 10.2 µM (active) | AC50 [12]: 3.5 µM (active) | IC50 [13]: 12.7 µM (active) | IC50 [14]: 22.6 µM (active)

Cc1[nH]cnc1CN1CCc2c(c3ccccc3n2C)C1=O [ALOSETRON HYDROCHLORIDE]
IC50 [15]: 7.1 µM (active) | IC50 [16]: 18.2 µM (active) | AC50 [17]: 11.5 µM (active)

CN(C)CCCN1c2ccccc2Sc2ccc(Cl)cc21 [CHLORPROMAZINE HYDROCHLORIDE]
AC50 [18]: 1.01 µM (active) | CC50 [19]: 26 µM (active) | EC50 [20]: > 20 µM (not active) | AC50 [21]: < 25.3 µM (active) | EC50 [22]: > 20 µM (not active)
